Assay results from article PMC10008561 (Nature Communications, 2023).
Values joined by “and” are separate entries in the source; they are usually repeats but may differ in a detail not shown here. Equal values may be shown once. Read-outs that look alike come from different tables or passages of the source.

How the values were obtained:
[1] = system: KOR; test: Bias factor, Gz vs β-arrestin2 (BRET), U50,488 as reference; assay type: cell-based, human
[2] = molecular target: human KOR (Homo sapiens, UniProt P41145); test: cell-based; design: expressed in transfected cells; host or cells: HEK 293T (ATCC, CRL-3216); details: HEK-293T
human KOR, sequence (P41145 whole entry): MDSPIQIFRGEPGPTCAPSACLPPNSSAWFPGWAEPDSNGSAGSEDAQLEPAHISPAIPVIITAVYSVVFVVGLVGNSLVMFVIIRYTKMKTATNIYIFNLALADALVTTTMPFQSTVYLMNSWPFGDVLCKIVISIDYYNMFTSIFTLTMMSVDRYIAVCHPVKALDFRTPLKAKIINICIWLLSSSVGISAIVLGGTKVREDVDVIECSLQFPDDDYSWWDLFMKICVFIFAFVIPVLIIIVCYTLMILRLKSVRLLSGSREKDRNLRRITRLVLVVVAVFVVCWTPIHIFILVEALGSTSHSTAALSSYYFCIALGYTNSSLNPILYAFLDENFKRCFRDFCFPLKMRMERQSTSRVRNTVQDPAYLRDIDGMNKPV

[3] = molecular target: T1, human KOR (Gi3) (Homo sapiens, UniProt P41145, T94V); test: cell-based; details: HEK-293T
T1 construct: expressed in transfected cells; host or cells: HEK293T
T1 sequence (P41145 whole entry T94V): as the sequence (P41145 whole entry) above, with T94V counted along it

[4] = molecular target: T2, human KOR (Gi3) (Homo sapiens, UniProt P41145, K227A); test: cell-based; details: HEK-293T
T2 construct: expressed in transfected cells; host or cells: HEK293T
T2 sequence (P41145 whole entry K227A): as the sequence (P41145 whole entry) above, with K227A counted along it

[5] = molecular target: T3, human KOR (Gi3) (Homo sapiens, UniProt P41145, G319L); test: cell-based; details: HEK-293T
T3 construct: expressed in transfected cells; host or cells: HEK293T
T3 sequence (P41145 whole entry G319L): as the sequence (P41145 whole entry) above, with G319L counted along it

[6] = molecular target: T4, human KOR (Gi3) (Homo sapiens, UniProt P41145, D266A); test: cell-based; details: HEK-293T
T4 construct: expressed in transfected cells; host or cells: HEK293T
T4 sequence (P41145 whole entry D266A): as the sequence (P41145 whole entry) above, with D266A counted along it

[7] = molecular target: T5, human KOR (Gi3) (Homo sapiens, UniProt P41145, R271A); test: cell-based; details: HEK-293T
T5 construct: expressed in transfected cells; host or cells: HEK293T
T5 sequence (P41145 whole entry R271A): as the sequence (P41145 whole entry) above, with R271A counted along it

[8] = molecular target: T6, human KOR (Gi3) (Homo sapiens, UniProt P41145, Y320L); test: cell-based; details: HEK-293T
T6 construct: expressed in transfected cells; host or cells: HEK293T
T6 sequence (P41145 whole entry Y320L): as the sequence (P41145 whole entry) above, with Y320L counted along it

[9] = molecular target: T7, human KOR (Gi3) (Homo sapiens, UniProt P41145, N322A); test: cell-based; details: HEK-293T
T7 construct: expressed in transfected cells; host or cells: HEK293T
T7 sequence (P41145 whole entry N322A): as the sequence (P41145 whole entry) above, with N322A counted along it

[10] = molecular target: T8, human KOR (β-arrestin 1) (Homo sapiens, UniProt P41145, N322A); test: cell-based; details: HEK-293T
T8 construct: expressed in transfected cells; host or cells: HEK293T
T8 sequence (P41145 whole entry N322A): as the sequence (P41145 whole entry) above, with N322A counted along it

[11] = molecular target: T9, human KOR (β-arrestin 1) (Homo sapiens, UniProt P41145, Y139L); test: cell-based; details: HEK-293T
T9 construct: expressed in transfected cells; host or cells: HEK293T
T9 sequence (P41145 whole entry Y139L): as the sequence (P41145 whole entry) above, with Y139L counted along it

[12] = molecular target: T10, human KOR (β-arrestin 1) (Homo sapiens, UniProt P41145, G319L); test: cell-based; details: HEK-293T
T10 construct: expressed in transfected cells; host or cells: HEK293T
T10 sequence (P41145 whole entry G319L): as the sequence (P41145 whole entry) above, with G319L counted along it

[13] = molecular target: T11, human KOR (β-arrestin 1) (Homo sapiens, UniProt P41145, Y320L); test: cell-based; details: HEK-293T
T11 construct: expressed in transfected cells; host or cells: HEK293T
T11 sequence (P41145 whole entry Y320L): as the sequence (P41145 whole entry) above, with Y320L counted along it

[14] = molecular target: T12, human KOR (β-arrestin 1) (Homo sapiens, UniProt P41145, R170A); test: cell-based; details: HEK-293T
T12 construct: expressed in transfected cells; host or cells: HEK293T
T12 sequence (P41145 whole entry R170A): as the sequence (P41145 whole entry) above, with R170A counted along it

[15] = molecular target: T13, human KOR (β-arrestin 1) (Homo sapiens, UniProt P41145, Q115N); test: cell-based; details: HEK-293T
T13 construct: expressed in transfected cells; host or cells: HEK293T
T13 sequence (P41145 whole entry Q115N): as the sequence (P41145 whole entry) above, with Q115N counted along it

[16] = molecular target: T14, human KOR (β-arrestin 1) (Homo sapiens, UniProt P41145, R271A); test: cell-based; details: HEK-293T
T14 construct: expressed in transfected cells; host or cells: HEK293T
T14 sequence (P41145 whole entry R271A): as the sequence (P41145 whole entry) above, with R271A counted along it

[17] = molecular target: T15, human KOR (β-arrestin 1) (Homo sapiens, UniProt P41145, E297A); test: cell-based; details: HEK-293T
T15 construct: expressed in transfected cells; host or cells: HEK293T
T15 sequence (P41145 whole entry E297A): as the sequence (P41145 whole entry) above, with E297A counted along it

[18] = molecular target: T16, human KOR (β-arrestin 1) (Homo sapiens, UniProt P41145, D155A); test: cell-based; details: HEK-293T
T16 construct: expressed in transfected cells; host or cells: HEK293T
T16 sequence (P41145 whole entry D155A): as the sequence (P41145 whole entry) above, with D155A counted along it

[19] = molecular target: T17, human KOR (β-arrestin 1) (Homo sapiens, UniProt P41145, R274A); test: cell-based; details: HEK-293T
T17 construct: expressed in transfected cells; host or cells: HEK293T
T17 sequence (P41145 whole entry R274A): as the sequence (P41145 whole entry) above, with R274A counted along it

[20] = molecular target: T18, human KOR (β-arrestin 1) (Homo sapiens, UniProt P41145, R257A); test: cell-based; details: HEK-293T
T18 construct: expressed in transfected cells; host or cells: HEK293T
T18 sequence (P41145 whole entry R257A): as the sequence (P41145 whole entry) above, with R257A counted along it

[21] = molecular target: T19, human KOR (β-arrestin 1) (Homo sapiens, UniProt P41145, T94V); test: cell-based; details: HEK-293T
T19 construct: expressed in transfected cells; host or cells: HEK293T
T19 sequence (P41145 whole entry T94V): as the sequence (P41145 whole entry) above, with T94V counted along it

[22] = molecular target: T20, human KOR (β-arrestin 1) (Homo sapiens, UniProt P41145, D105A); test: cell-based; details: HEK-293T
T20 construct: expressed in transfected cells; host or cells: HEK293T
T20 sequence (P41145 whole entry D105A): as the sequence (P41145 whole entry) above, with D105A counted along it

[23] = molecular target: T21, human KOR (β-arrestin 1) (Homo sapiens, UniProt P41145, K227A); test: cell-based; details: HEK-293T
T21 construct: expressed in transfected cells; host or cells: HEK293T
T21 sequence (P41145 whole entry K227A): as the sequence (P41145 whole entry) above, with K227A counted along it

[24] = molecular target: T22, human KOR (β-arrestin 1) (Homo sapiens, UniProt P41145, F283A); test: cell-based; details: HEK-293T
T22 construct: expressed in transfected cells; host or cells: HEK293T
T22 sequence (P41145 whole entry F283A): as the sequence (P41145 whole entry) above, with F283A counted along it

[25] = molecular target: T23, human KOR (β-arrestin 1) (Homo sapiens, UniProt P41145, D334A); test: cell-based; details: HEK-293T
T23 construct: expressed in transfected cells; host or cells: HEK293T
T23 sequence (P41145 whole entry D334A): as the sequence (P41145 whole entry) above, with D334A counted along it

[26] = molecular target: T24, human KOR (β-arrestin 1) (Homo sapiens, UniProt P41145, K200A); test: cell-based; details: HEK-293T
T24 construct: expressed in transfected cells; host or cells: HEK293T
T24 sequence (P41145 whole entry K200A): as the sequence (P41145 whole entry) above, with K200A counted along it

[27] = molecular target: T25, human KOR (β-arrestin 1) (Homo sapiens, UniProt P41145, N326A); test: cell-based; details: HEK-293T
T25 construct: expressed in transfected cells; host or cells: HEK293T
T25 sequence (P41145 whole entry N326A): as the sequence (P41145 whole entry) above, with N326A counted along it

[28] = molecular target: T26, human KOR (β-arrestin 1) (Homo sapiens, UniProt P41145); test: cell-based
T26 construct: expressed in transfected cells; host or cells: HEK293T
T26 sequence (P41145 whole entry): as the sequence (P41145 whole entry) above

[29] = molecular target: T27, human KOR (β-arrestin 1) (Homo sapiens, UniProt P41145, N141A); test: cell-based; details: HEK-293T
T27 construct: expressed in transfected cells; host or cells: HEK293T
T27 sequence (P41145 whole entry N141A): as the sequence (P41145 whole entry) above, with N141A counted along it

[30] = molecular target: T28, human KOR (β-arrestin 1) (Homo sapiens, UniProt P41145, L253A); test: cell-based; details: HEK-293T
T28 construct: expressed in transfected cells; host or cells: HEK293T
T28 sequence (P41145 whole entry L253A): as the sequence (P41145 whole entry) above, with L253A counted along it

[31] = molecular target: T29, human KOR (β-arrestin 1) (Homo sapiens, UniProt P41145, F114L); test: cell-based; details: HEK-293T
T29 construct: expressed in transfected cells; host or cells: HEK293T
T29 sequence (P41145 whole entry F114L): as the sequence (P41145 whole entry) above, with F114L counted along it

[32] = read-out: KOR WT_Gi response (Figure S4D)
[33] = read-out: cAMP response (Figure S4C)
[34] = HEK-293T, read-out: βArrestin1 (Figure 5A concentration-response, replicate values)

For `CN(C(=O)/C=C/c1ccoc1)[C@@H]1CC[C@@]2(O)[C@H]3Cc4ccc(O)c5c4[C@@]2(CCN3CC2CC2)[C@H]1O5` [Nalfurafine, nalfurafine], the “bias factor towards Gz protein” value [1] was 4.8, the Emax [2] was 100 ± 2% and the activation at 1 pM [2, 32] was 34.6%. For the same molecule, the activation at 3.162 pM [2, 32] was 50.4%, the activation at 10 pM [2, 32] was 75.7% and the activation at 31.62 pM [2, 32] was 89.3%. It also gave an activation at 0.0001 µM [2, 32] of 97.6%, an activation at 0.001 µM [2, 32] of 96.5% and an activation at 0.1 µM [2, 32] of 103%. For the same molecule, the activation at 1 µM [2, 32] was 100%, the activation at […] [2, 32] was 94.1% and 99.5% and 96.9% and the activation at 1 pM ([2]; read-out: cAMP response) was 42.4%. The activation at 3.162 pM ([2]; read-out: cAMP response) was 56.3%, the activation at 10 pM ([2]; read-out: cAMP response) was 78.7% and the activation at 31.62 pM ([2]; read-out: cAMP response) was 90.8%. It also gave an activation at 0.0001 µM ([2]; read-out: cAMP response) of 98.1%, an activation at 0.001 µM ([2]; read-out: cAMP response) of 97.1% and an activation at 0.1 µM ([2]; read-out: cAMP response) of 103%. The activation at 1 µM ([2]; read-out: cAMP response) was 101%, the activation at […] ([2]; read-out: cAMP response) was 95% (2×) and 99.8% and 97.5% and the activation at 1 pM [2, 33] was 34.6%. It also gave an activation at 3.162 pM [2, 33] of 50.4%, an activation at 10 pM [2, 33] of 75.7% and an activation at 31.62 pM [2, 33] of 89.3%. The activation at 0.0001 µM [2, 33] was 97.6%, the activation at 0.001 µM [2, 33] was 96.5% and the activation at 0.1 µM [2, 33] was 103%. The activation at 1 µM [2, 33] was 100%, the activation at […] [2, 33] was 94.1% and 99.5% and 96.9% and the Emax [3] was 98.2%. For the same molecule, the Emax [4] was 106%, the Emax [5] was 106% and the Emax [6] was 105%. The Emax [7] was 103%, the Emax [8] was 66.9% and the Emax [9] was 95.8%. For the same molecule, the Emax [10] was 101%, the Emax [11] was 92.8% and the Emax [12] was 60.4%. For the same molecule, the Emax [13] was 83.6%, the Emax [14] was 81.8% and the Emax [15] was 62.2%. The Emax [16] was 101%, the Emax [17] was 101% and the Emax [18] was 86.5%. For the same molecule, the Emax [19] was 78.7%, the Emax [20] was 103% and the Emax [21] was 73.2%. The Emax [22] was 91.6%, the Emax [23] was 77.5% and the Emax [24] was 100%. For the same molecule, the Emax [25] was 71.1%, the Emax [26] was 81.3% and the Emax [27] was 65.2%. The Emax% [28] was 52.03% and 50%, the Emax ([28]; HEK-293T) was 52.1% and the activation at 0.01 µM [28, 34] was 47.1%. The activation at 0.1 µM [28, 34] was 49.9%, the activation at 1 µM [28, 34] was 52.7% and the Emax [29] was 91.3%. For the same molecule, the Emax [30] was 94.5% and the Emax [31] was 33.9%.
